In the experiment the target is T1, β-amyloid Aβ42 (aggregates) (Homo sapiens, UniProt P05067).
T1 construct: gene APP; synthetic Aβ42 peptide, aggregated (fibrils)
Kind of experiment: fluorescence saturation titration of probe with […] aggregated Aβ[…] in PBS. To be noted: read-out: Probe 3. Type of experiment: binding.

T1 sequence (P05067 672-713 limits assumed): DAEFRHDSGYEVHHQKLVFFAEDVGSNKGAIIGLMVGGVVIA

Take `CN(C)c1ccc(/C=C/n2ncc3c(c2=O)Oc2ccc(C=C(C#N)C(=O)O)cc2O3)cc1` [compound 3, probe 3]: the Kd was found to be 350 ± 30 nM.
